The values that follow come from patent publication US11814444B2, “Cyclic polypeptides for PCSK9 inhibition” (Ra Pharmaceuticals, Inc., priority 2018, dated 2023).

Numbered stars: 1 amine (or outer) side, 2 acyl side, 3 side chain; on linkers, the order of the positions; unused ones are H or OH. Bridge positions count the residues as written; N and C are the ends. Square brackets hold non-standard residues; d marks the D form. Peptide text beside a SMILES is read from it. Ala(1H-tetrazol-5-yl) = N[C@@H](Cc1nnn[nH]1)C(=O)O; Phe(4-CF3) = N[C@@H](Cc1ccc(C(F)(F)F)cc1)C(=O)O; Trp(5-F) = N[C@@H](Cc1c[nH]c2ccc(F)cc12)C(=O)O; Trp(7-aza) = N[C@@H](Cc1c[nH]c2ncccc12)C(=O)O; Pro(cis-4-F) = O=C(O)[C@@H]1C[C@H](F)CN1; Phe(4-F) = N[C@@H](Cc1ccc(F)cc1)C(=O)O; 1Nal = N[C@@H](Cc1cccc2ccccc12)C(=O)O; mXylylene = c1cc(C[*:1])cc(C[*:2])c1; Ala(cPr) = N[C@@H](CC1CC1)C(=O)O; Hyp = O=C(O)[C@@H]1C[C@@H](O)CN1; NH(CH2)5NH = C(CCN[*:1])CCN[*:2]; NMeE = CN[C@@H](CCC(=O)O)C(=O)O; Aad = N[C@@H](CCCC(=O)O)C(=O)O; Chg = N[C@H](C(=O)O)C1CCCCC1; Tle = CC(C)(C)[C@H](N)C(=O)O; αMeV = CC(C)[C@](C)(N)C(=O)O; S5 = C=CCCC[C@](C)(N)C(=O)O; NMeS = CN[C@@H](CO)C(=O)O; Nva = CCC[C@H](N)C(=O)O; Ac4c = NC1(C(=O)O)CCC1; X4 = C(CC[*:2])C[*:1]; Mpa = O=C(O)CCS

Experiment [1] addresses human PCSK9 / human LDLR EGFa domain interaction (Homo sapiens, UniProt Q8NBP7). The experiment can be described thus: TR-FRET assay of inhibition of the PCSK9-LDLR protein-protein interaction. The class given is binding. The settings on record: 20 nM avitag-biotinylated human PCSK9, 20 nM his-tagged human LDLR EGFa domain, 2 hours, room temperature. In a few lines:
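Compounds in dose-response are mixed with 20 nM human PCSK9 (avitag-biotinylated) and 20 nM his-tagged LDLR EGFa domain, plus 5 nM each streptavidin-Ulight and Eu-anti-6×His. After 2 h at room temperature in HEPES/NaCl/CaCl2 buffer with BSA and P20, TR-FRET is read and IC50 fitted (4-parameter).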

For a further experiment, the target named is PCSK9 (Homo sapiens, UniProt Q8NBP7). The experiment can be described thus: PCSK9 Alexa FRET Standard assay (displacement of AlexaFluor647 tagged cyclic peptide Reagent A). The settings on record: 0.5 nM PCSK9, 20 nM AF cyclic peptide Reagent A. The class given is binding. The method in brief: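 TR-FRET displacement: 0.5 nM biotinylated PCSK9 with 1.25 nM Strep-Eu and 20 nM AlexaFluor-tagged cyclic peptide (final) in 50 mM HEPES pH 7.4, 0.15 M NaCl, 5 mM CaCl2, 0.01% BSA, 0.01% P20, ≥2 h at room temperature. IC50 from sigmoidal fit, converted to Ki via peptide KD; falling Eu counts flagged false positives.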
Chain of PCSK9 (Q8NBP7 153-692): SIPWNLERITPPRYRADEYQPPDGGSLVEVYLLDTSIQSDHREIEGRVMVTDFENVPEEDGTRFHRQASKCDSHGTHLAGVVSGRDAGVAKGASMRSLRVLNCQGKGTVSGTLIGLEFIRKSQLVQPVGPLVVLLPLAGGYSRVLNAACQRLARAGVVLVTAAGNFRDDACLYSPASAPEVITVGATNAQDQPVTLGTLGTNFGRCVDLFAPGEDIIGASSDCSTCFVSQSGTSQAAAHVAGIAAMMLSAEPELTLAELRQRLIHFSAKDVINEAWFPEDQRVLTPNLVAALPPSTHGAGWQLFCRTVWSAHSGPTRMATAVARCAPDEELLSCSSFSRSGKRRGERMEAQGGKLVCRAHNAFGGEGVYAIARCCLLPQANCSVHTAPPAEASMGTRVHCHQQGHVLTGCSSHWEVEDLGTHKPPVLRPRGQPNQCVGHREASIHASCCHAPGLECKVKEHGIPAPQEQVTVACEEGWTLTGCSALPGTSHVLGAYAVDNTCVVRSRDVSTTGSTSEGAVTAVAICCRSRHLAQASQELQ

Chain of human PCSK9 / human LDLR EGFa domain interaction (Q8NBP7 153-692): as above
Chain of human PCSK9 / human LDLR EGFa domain interaction (Q8NBP7 31-152 partner limits assumed): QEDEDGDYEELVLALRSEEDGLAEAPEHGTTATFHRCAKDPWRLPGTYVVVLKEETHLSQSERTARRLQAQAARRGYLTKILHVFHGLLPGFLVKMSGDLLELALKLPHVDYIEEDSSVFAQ

`CCC[C@@H]1NC(=O)[C@H](Cc2ccc(O)cc2)NC(=O)[C@H](CCC(=O)O)N(C)C(=O)[C@H](CCC)NC(=O)[C@H](Cc2c[nH]c3ncccc23)NC(=O)[C@H]([C@@H](C)O)NC(=O)[C@H](Cc2c[nH]cn2)NC(=O)[C@H](Cc2ccc(O)cc2)NC(=O)[C@H](C(C)(C)C)NC(=O)CCSCc2cccc(c2)CSC[C@@H](C(N)=O)NC(=O)[C@H]([C@@H](C)O)NC1=O` [Compound 208] ([Mpa][Tle]YHT[Trp(7-aza)][Nva][NMeE]Y[Nva]TC-NH2; linker 1-12 via mXylylene): the IC50 (in experiment [1]; on PCSK9) was 50000 to 100000 nM in each case.
Regarding `CCC[C@@H]1NC(=O)[C@H](Cc2c[nH]c3ncccc23)NC(=O)[C@H]([C@@H](C)O)NC(=O)[C@H](Cc2c[nH]cn2)NC(=O)[C@H](Cc2ccc(O)cc2)NC(=O)[C@H](C(C)(C)C)NC(=O)[C@@H](NC(C)=O)CSCc2cccc(c2)CSC[C@@H](C(N)=O)NC(=O)[C@H]([C@@H](C)O)NC(=O)[C@H](CCC)NC(=O)[C@H](Cc2ccc(O)cc2)NC(=O)[C@H](CCC(=O)O)NC1=O` [Compound 235] (Ac-C[Tle]YHT[Trp(7-aza)][Nva]EY[Nva]TC-NH2; linker 1-12 via mXylylene), the values for the IC50 (in experiment [1]; on PCSK9) were 100 to 1000 nM and 1000 to 21000 nM, respectively.
Taken in the same sequence, the figures for `CCC[C@@H]1NC(=O)[C@H](Cc2ccc(O)cc2)NC(=O)[C@H](CCC(=O)O)NC(=O)[C@H](CCC)NC(=O)[C@H](Cc2c[nH]c3ncccc23)NC(=O)[C@H]([C@@H](C)O)NC(=O)[C@H](Cc2c[nH]cn2)NC(=O)[C@H](Cc2ccc(O)cc2)NC(=O)[C@H](C(C)(C)C)NC(=O)CCSCc2cccc(c2)CSC[C@@H](C(N)=O)NC(=O)[C@H](Cc2c[nH]cn2)NC1=O` [Compound 247] ([Mpa][Tle]YHT[Trp(7-aza)][Nva]EY[Nva]HC-NH2; linker 1-12 via mXylylene) were 100 to 1000 nM and 1000 to 21000 nM.
Turning to `CCC[C@@H]1NC(=O)[C@H](Cc2c[nH]c3ncccc23)NC(=O)[C@H]([C@@H](C)O)NC(=O)[C@H](Cc2c[nH]cn2)NC(=O)[C@H](Cc2ccc(O)cc2)NC(=O)[C@H](C(C)(C)C)NC(=O)CCSCc2cccc(c2)CSC[C@@H](C(N)=O)NC(=O)[C@H]([C@@H](C)O)NC(=O)[C@H](CCC)NC(=O)[C@H](Cc2ccc(O)cc2)NC(=O)[C@H](Cc2nnn[nH]2)NC1=O` [Compound 253] ([Mpa][Tle]YHT[Trp(7-aza)][Nva][Ala(1H-tetrazol-5-yl)]Y[Nva]TC-NH2; linker 1-12 via mXylylene), the values for the IC50 (in experiment [1]; on PCSK9) were 100 to 1000 nM and 1000 to 21000 nM, respectively.
On the same counts, the results for `CCC[C@@H]1NC(=O)[C@H](Cc2c[nH]c3ncccc23)NC(=O)[C@H]([C@@H](C)O)NC(=O)[C@H](Cc2c[nH]cn2)NC(=O)[C@H](Cc2ccc(O)cc2)NC(=O)[C@H](C(C)(C)C)NC(=O)CCSCc2cccc(c2)CSC[C@@H](C(N)=O)NC(=O)[C@H]([C@@H](C)O)NC(=O)[C@H](CCC)NC(=O)[C@H](Cc2ccc(O)cc2)NC(=O)[C@H](CC(=O)O)NC1=O` [Compound 254] ([Mpa][Tle]YHT[Trp(7-aza)][Nva]DY[Nva]TC-NH2; linker 1-12 via mXylylene) are 100 to 1000 nM and 1000 to 21000 nM.
On the same counts, the results for `CCC[C@@H]1NC(=O)[C@H](Cc2c[nH]c3ncccc23)NC(=O)[C@H]([C@@H](C)O)NC(=O)[C@H](Cc2c[nH]cn2)NC(=O)[C@H](Cc2ccc(O)cc2)NC(=O)[C@H](C(C)(C)C)NC(=O)CCSCc2cccc(c2)CSC[C@@H](C(N)=O)NC(=O)[C@H]([C@@H](C)O)NC(=O)[C@H](CCC)NC(=O)[C@H](Cc2ccc(O)cc2)NC(=O)[C@H](CCCC(=O)O)NC1=O` [Compound 259] ([Mpa][Tle]YHT[Trp(7-aza)][Nva][Aad]Y[Nva]TC-NH2; linker 1-12 via mXylylene) are 100 to 1000 nM and 1000 to 21000 nM.
Taken in the same sequence, the figures for `CCC[C@@H]1NC(=O)[C@H](Cc2c[nH]c3ncccc23)NC(=O)[C@H]([C@@H](C)O)NC(=O)[C@H](Cc2c[nH]cn2)NC(=O)[C@H](Cc2ccc(O)cc2)NC(=O)[C@H](C(C)(C)C)NC(=O)CCSCc2cccc(c2)CSC[C@@H](C(N)=O)NC(=O)[C@H]([C@@H](C)O)NC(=O)[C@H](CCC)NC(=O)[C@H](Cc2ccc(C(F)(F)F)cc2)NC(=O)[C@H](CCC(=O)O)NC1=O` [Compound 260] ([Mpa][Tle]YHT[Trp(7-aza)][Nva]E[Phe(4-CF3)][Nva]TC-NH2; linker 1-12 via mXylylene) were 1000 to 21000 nM and 1000 to 21000 nM.
For the molecule `CCC[C@@H]1NC(=O)[C@H](Cc2c[nH]c3ncccc23)NC(=O)[C@H]([C@@H](C)O)NC(=O)[C@H](Cc2c[nH]cn2)NC(=O)[C@H](Cc2ccc(O)cc2)NC(=O)[C@H](C(C)(C)C)NC(=O)CCSCc2cccc(c2)CSC[C@@H](C(N)=O)NC(=O)[C@H]([C@@H](C)O)NC(=O)[C@H](CCC)NC(=O)[C@H](Cc2c[nH]c3ccc(F)cc23)NC(=O)[C@H](CCC(=O)O)NC1=O` [Compound 261] ([Mpa][Tle]YHT[Trp(7-aza)][Nva]E[Trp(5-F)][Nva]TC-NH2; linker 1-12 via mXylylene), the 50% inhibitory concentration (IC50) (in experiment [1]; on PCSK9) was 1000 to 21000 nM throughout.
As to `CCC[C@@H]1NC(=O)[C@H](Cc2c[nH]c3ccc(F)cc23)NC(=O)[C@H]([C@@H](C)O)NC(=O)[C@H](Cc2c[nH]cn2)NC(=O)[C@H](Cc2ccc(O)cc2)NC(=O)[C@H](C(C)(C)C)NC(=O)CCSCc2cccc(c2)CSC[C@@H](C(N)=O)NC(=O)[C@H]([C@@H](C)O)NC(=O)[C@H](CCC)NC(=O)[C@H](Cc2ccc(O)cc2)NC(=O)[C@H](CCC(=O)O)NC1=O` [Compound 263] ([Mpa][Tle]YHT[Trp(5-F)][Nva]EY[Nva]TC-NH2; linker 1-12 via mXylylene), the IC50 in experiment [1] is 100 to 1000 nM; at PCSK9, 1000 to 21000 nM.
Taken in the same sequence, the figures for `CCC[C@@H]1NC(=O)[C@H](Cc2ccc(O)cc2)NC(=O)[C@H](CCC(=O)O)NC(=O)[C@H](CC2CC2)NC(=O)[C@H](Cc2c[nH]c3ncccc23)NC(=O)[C@H]([C@@H](C)O)NC(=O)[C@H](Cc2c[nH]cn2)NC(=O)[C@H](Cc2ccc(O)cc2)NC(=O)[C@H](C(C)(C)C)NC(=O)CCSCc2cccc(c2)CSC[C@@H](C(N)=O)NC(=O)[C@H]([C@@H](C)O)NC1=O` [Compound 264] ([Mpa][Tle]YHT[Trp(7-aza)][Ala(cPr)]EY[Nva]TC-NH2; linker 1-12 via mXylylene) were 100 to 1000 nM and 1000 to 21000 nM.
With `CCC[C@@H]1NC(=O)[C@H](Cc2ccc(O)cc2)NC(=O)[C@H](CCC(=O)O)NC(=O)[C@H](Cc2ccc(F)cc2)NC(=O)[C@H](Cc2c[nH]c3ncccc23)NC(=O)[C@H]([C@@H](C)O)NC(=O)[C@H](Cc2c[nH]cn2)NC(=O)[C@H](Cc2ccc(O)cc2)NC(=O)[C@H](C(C)(C)C)NC(=O)CCSCc2cccc(c2)CSC[C@@H](C(N)=O)NC(=O)[C@H]([C@@H](C)O)NC1=O` [Compound 265] ([Mpa][Tle]YHT[Trp(7-aza)][Phe(4-F)]EY[Nva]TC-NH2; linker 1-12 via mXylylene), the results for the IC50 (in experiment [1]; on PCSK9) were 100 to 1000 nM and 1000 to 21000 nM, respectively.
With `CCC[C@@H]1NC(=O)[C@H](Cc2ccc(O)cc2)NC(=O)[C@H](CCC(=O)O)NC(=O)[C@H](C2CCCCC2)NC(=O)[C@H](Cc2c[nH]c3ncccc23)NC(=O)[C@H]([C@@H](C)O)NC(=O)[C@H](Cc2c[nH]cn2)NC(=O)[C@H](Cc2ccc(O)cc2)NC(=O)[C@H](C(C)(C)C)NC(=O)CCSCc2cccc(c2)CSC[C@@H](C(N)=O)NC(=O)[C@H]([C@@H](C)O)NC1=O` [Compound 273] ([Mpa][Tle]YHT[Trp(7-aza)][Chg]EY[Nva]TC-NH2; linker 1-12 via mXylylene), the IC50 (in experiment [1]; on PCSK9) was 100 to 1000 nM throughout.
In the case of `CCC[C@H](NC(C)=O)C(=O)N[C@H]1CSCc2cccc(c2)CSC[C@@H](C(N)=O)NC(=O)[C@H](Cc2c[nH]c3ccc(F)cc23)NC(=O)[C@@H]2C[C@H](F)CN2C(=O)[C@H](CCCNC(=N)N)NC(=O)CNC(=O)[C@H](CO)N(C)C(=O)[C@H](Cc2c[nH]c3ccc(F)cc23)NC(=O)[C@H](Cc2ccc(O)cc2)NC(=O)[C@H](C(C)(C)C)NC(=O)[C@H]([C@@H](C)CC)NC(=O)[C@H]([C@@H](C)O)NC1=O` [Compound 337] (Ac-[Nva]CTI[Tle]Y[Trp(5-F)][NMeS]GR[Pro(cis-4-F)][Trp(5-F)]C-NH2; linker 2-13 via mXylylene), the IC50 (in experiment [1]; on PCSK9) was 1 to 100 nM in each case.
Turning to `CC(=O)N[C@H]1CSCc2cccc(c2)CSC[C@H](C(N)=O)NC(=O)[C@H]([C@@H](C)O)NC(=O)[C@](C)(C(C)C)NC(=O)[C@H](Cc2ccc(O)cc2)NC(=O)[C@H](C)NC(=O)C2(CCC2)NC(=O)[C@H](Cc2c[nH]c3ncccc23)NC(=O)[C@H]([C@@H](C)O)NC(=O)[C@@H]2C[C@@H]3CN2C(=O)[C@H](Cc2ccc(O)cc2)NC(=O)[C@H](NC1=O)[C@H](C)OCCCCO3` [Compound 343] (Ac-C[dT]Y[Hyp]T[Trp(7-aza)][Ac4c]AY[αMeV]T[dC]-NH2; linker 1-12 via mXylylene; linker 2-4 via X4), the IC50 was in the range of 21000 to 50000 nM in experiment [1] and 1000 to 21000 nM at PCSK9.
Take `CCC[C@@H]1NC(=O)[C@H](Cc2ccc(O)cc2)NC(=O)[C@H](C)NC(=O)[C@]2(C)CCC/C=C/CCC[C@](C)(NC1=O)C(=O)NCCCCCNC(=O)CCC[C@H](NC(C)=O)C(=O)N[C@@H](C(C)(C)C)C(=O)N[C@@H](Cc1ccc(O)cc1)C(=O)N1CCC[C@H]1C(=O)N[C@@H]([C@@H](C)O)C(=O)N[C@@H](Cc1cccc3ccccc13)C(=O)N2` [Compound 347] (Ac-[Aad][Tle]YPT[1Nal][S5]AY[Nva][S5]; linker 1-C via NH(CH2)5NH; staple (E) 7-11): the IC50 (in experiment [1]; at PCSK9) was 100 to 1000 nM throughout.
